# Assay results: patent US11802111B2, “Cyclobutyl amide monoacylglycerol lipase modulators” (Janssen Pharmaceutica NV, priority 2020, dated 2023)
# Molecular target: human MGL from HeLa cells (Homo sapiens (Human), UniProt Q99685)
# Assay: MGL in vitro activity assay ([glycerol-1,3-3H]-oleoyl glycerol hydrolysis, activated carbon filtration)
# Format: biochemical
# Details: 300 nM [Glycerol-1,3-3H]-oleoyl glycerol, one hour
# Outline: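 Activity measured as tritium in the flow-through after activated carbon filtration of a 1 h reaction containing 300 nM 3H-oleoyl glycerol, compound and HeLa-derived human MGL. Compounds screened at 10 μM; IC50 series start at an empirically chosen highest concentration.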
# human MGL from HeLa cells, sequence (Q99685 whole entry): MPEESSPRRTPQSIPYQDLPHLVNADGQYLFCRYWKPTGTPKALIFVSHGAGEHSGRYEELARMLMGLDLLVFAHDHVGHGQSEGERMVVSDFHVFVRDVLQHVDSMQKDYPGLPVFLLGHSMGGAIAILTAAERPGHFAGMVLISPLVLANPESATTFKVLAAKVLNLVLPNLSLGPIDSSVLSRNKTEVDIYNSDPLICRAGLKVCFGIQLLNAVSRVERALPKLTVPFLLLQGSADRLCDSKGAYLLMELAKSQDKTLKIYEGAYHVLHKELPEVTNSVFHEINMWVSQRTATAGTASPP
row,SMILES,IC50 [nM]
1,"C[C@]1(O)C[C@@H](C(=O)N2CC3(CC(Cc4ccc(OC(F)F)cc4)C3)C2)C1 [Example 221, (6-(4-(Difluoromethoxy)benzyl)-2-azaspiro[3.3]heptan-2-yl)((1s,3s)-3-hydroxy-3-methylcyclobutyl)methanone]",5.1
2,"CC(C)c1cccc(C2(O)CCC3(CC2)CN(C(=O)[C@H]2C[C@@](C)(O)C2)C3)c1 [Example 151, ((1s,3s)-3-Hydroxy-3-methylcyclobutyl)(7-hydroxy-7-(3-isopropylphenyl)-2-azaspiro[3.5]nonan-2-yl)methanone]",4.6
3,"Cc1c(CC2CC3(C2)CN(C(=O)[C@H]2C[C@@](C)(O)C2)C3)cccc1C(F)(F)F [Example 155, ((1s,3s)-3-Hydroxy-3-methylcyclobutyl)(6-(2-methyl-3-(trifluoromethyl)benzyl)-2-azaspiro[3.3]heptan-2-yl)methanone]",3
4,"C[C@]1(O)C[C@@H](C(=O)N2CC3(CC(Cc4cccc(C(F)F)c4)C3)C2)C1 [Example 231, (6-(3-(Difluoromethyl)benzyl)-2-azaspiro[3.3]heptan-2-yl)((1s,3s)-3-hydroxy-3-methylcyclobutyl)methanone]",14
5,"CC(C)c1ccccc1OC1CCC2(CC1)CN(C(=O)[C@H]1C[C@@](C)(O)C1)C2 [Example 265, ((1s,3s)-3-Hydroxy-3-methylcyclobutyl)(7-(2-isopropylphenoxy)-2-azaspiro[3.5]nonan-2-yl)methanone]",37
6,"Cn1nc(CC2CC3(C2)CN(C(=O)[C@H]2C[C@@](C)(O)C2)C3)cc1C(F)(F)F [Example 283, ((1s,3s)-3-Hydroxy-3-methylcyclobutyl)(6-((1-methyl-5-(trifluoromethyl)-1H-pyrazol-3-yl)methyl)-2-azaspiro[3.3]heptan-2-yl)methanone]",116
7,"Cc1ccc(OC2CCC3(C2)CN(C(=O)[C@H]2C[C@@](C)(O)C2)C3)nc1C(F)(F)F (mixture of isomers) [Example 336, (rac)-((1s,3s)-3-Hydroxy-3-methylcyclobutyl)(6-((5-methyl-6-(trifluoromethyl)pyridin-2-yl)oxy)-2-azaspiro[3.4]octan-2-yl)methanone]",91
8,"CC(C)c1ccc(OC2CCC3(CC2)CN(C(=O)[C@H]2C[C@@](C)(O)C2)C3)cc1 [Example 242, ((1s,3s)-3-Hydroxy-3-methylcyclobutyl)(7-(4-isopropylphenoxy)-2-azaspiro[3.5]nonan-2-yl)methanone]",6.3
9,"Cn1ccc2ccc(CC3CC4(C3)CN(C(=O)[C@H]3C[C@@](C)(O)C3)C4)nc21 [Example 224, ((1s,3s)-3-Hydroxy-3-methylcyclobutyl)(6-((1-methyl-1H-pyrrolo[2,3-b]pyridin-6-yl)methyl)-2-azaspiro[3.3]heptan-2-yl)methanone]",27
10,"COc1cc(C2CC2)cc(C2CCC3(CC2)CN(C(=O)[C@H]2C[C@@](C)(O)C2)C3)c1 [Example 141, (7-(3-Cyclopropyl-5-methoxyphenyl)-2-azaspiro[3.5]nonan-2-yl)((1s,3s)-3-hydroxy-3-methylcyclobutyl)methanone]",20
11,"Cc1ccc(OC2CCC3(CC2)CN(C(=O)[C@H]2C[C@@](C)(O)C2)C3)nc1C(F)(F)F [Example 451, ((1s,3s)-3-Hydroxy-3-methylcyclobutyl)(7-((5-methyl-6-(trifluoromethyl)pyridin-2-yl)oxy)-2-azaspiro[3.5]nonan-2-yl)methanone]",8.2
12,"COc1cc(CC2CC3(C2)CN(C(=O)[C@H]2C[C@@](C)(O)C2)C3)ccc1C(F)(F)F [Example 276, ((1s,3s)-3-Hydroxy-3-methylcyclobutyl)(6-(3-methoxy-4-(trifluoromethyl)benzyl)-2-azaspiro[3.3]heptan-2-yl)methanone]",1
13,"COc1cc(C2CCC3(CC2)CN(C(=O)[C@H]2C[C@@](C)(O)C2)C3)ccc1C(F)(F)F [Example 113, ((1s,3s)-3-Hydroxy-3-methylcyclobutyl)(7-(3-methoxy-4-(trifluoromethyl)phenyl)-2-azaspiro[3.5]nonan-2-yl)methanone]",37
14,"COc1cc(C)nc(C2CCC3(CC2)CN(C(=O)[C@H]2C[C@@](C)(O)C2)C3)c1 [Example 375, ((1s,3s)-3-Hydroxy-3-methylcyclobutyl)(7-(4-methoxy-6-methylpyridin-2-yl)-2-azaspiro[3.5]nonan-2-yl)methanone]",231
15,"C[C@]1(O)C[C@@H](C(=O)N2CC3(CCC(c4cc(Cl)cc(OC(F)(F)F)c4)CC3)C2)C1 [Example 149, (7-(3-Chloro-5-(trifluoromethoxy)phenyl)-2-azaspiro[3.5]nonan-2-yl)((1s,3s)-3-hydroxy-3-methylcyclobutyl)methanone]",1.7
16,"COc1cccc(CC2CC3(C2)CN(C(=O)[C@H]2C[C@@](C)(O)C2)C3)c1 [Example 197, ((1s,3s)-3-Hydroxy-3-methylcyclobutyl)(6-(3-methoxybenzyl)-2-azaspiro[3.3]heptan-2-yl)methanone]",64
17,"CC(C)(C)c1ccc(C2CC3(C2)CN(C(=O)[C@H]2C[C@@](C)(O)C2)C3)cc1 [Example 2, (6-(4-(tert-Butyl)phenyl)-2-azaspiro[3.3]heptan-2-yl)((1s,3s)-3-hydroxy-3-methylcyclobutyl)methanone]",149
18,"Cc1cc(OC2CCC3(CC2)CN(C(=O)[C@H]2C[C@@](C)(O)C2)C3)nc2c1ccn2C [Example 470, (7-((1,4-Dimethyl-1H-pyrrolo[2,3-b]pyridin-6-yl)oxy)-2-azaspiro[3.5]nonan-2-yl)((1s,3s)-3-hydroxy-3-methylcyclobutyl)methanone]",11
19,"CC[C@]1(O)C[C@@H](C(=O)N2CC3(CCC(Oc4ccc(C)c(C(F)(F)F)n4)CC3)C2)C1 [Example 452, ((1r,3s)-3-Ethyl-3-hydroxycyclobutyl)(7-((5-methyl-6-(trifluoromethyl)pyridin-2-yl)oxy)-2-azaspiro[3.5]nonan-2-yl)methanone]",20

# Now from value to compound:
row,IC50 [nM],SMILES
1,90,"C[C@]1(O)C[C@@H](C(=O)N2CC3(CC(Cn4ccc5cccnc54)C3)C2)C1 [Example 286, (6-((1H-Pyrrolo[2,3-b]pyridin-1-yl)methyl)-2-azaspiro[3.3]heptan-2-yl)((1s,3s)-3-hydroxy-3-methylcyclobutyl)methanone]"
2,6,"CCc1cc(C2CCC3(C2)CN(C(=O)[C@H]2C[C@@](C)(O)C2)C3)ccc1Cl (mixture of isomers) [Example 15, (rac)-(6-(4-Chloro-3-ethylphenyl)-2-azaspiro[3.4]octan-2-yl)((1s,3s)-3-hydroxy-3-methylcyclobutyl)methanone]"
3,22,"C[C@]1(O)C[C@@H](C(=O)N2CC3(CCC(c4ccc(C(F)(F)F)cc4)C3)C2)C1 (mixture of isomers) [Example 55, (rac)-((1s,3s)-3-Hydroxy-3-methylcyclobutyl)(6-(4-(trifluoromethyl)phenyl)-2-azaspiro[3.4]octan-2-yl)methanone]"
4,5,"Cc1cc(C(F)(F)F)ccc1C1CCC2(C1)CN(C(=O)[C@H]1C[C@@](C)(O)C1)C2 (mixture of isomers) [Example 8, (rac)-((1s,3s)-3-Hydroxy-3-methylcyclobutyl)(6-(2-methyl-4-(trifluoromethyl)phenyl)-2-azaspiro[3.4]octan-2-yl)methanone]"
5,48,"C[C@H](c1ccccc1)[C@H]1CCC2(C1)CN(C(=O)[C@H]1C[C@@](C)(O)C1)C2 (relative stereo) [Example 339, ((1s,3*R)-3-Hydroxy-3-methylcyclobutyl)((*S)-6-((*S)-1-phenylethyl)-2-azaspiro[3.4]octan-2-yl)methanone]"
6,1.7,"Cc1cc(C2CCC3(C2)CN(C(=O)[C@H]2C[C@@](C)(O)C2)C3)ccc1C(F)(F)F (mixture of isomers) [Example 67, (rac)-((1s,3s)-3-Hydroxy-3-methylcyclobutyl)(6-(3-methyl-4-(trifluoromethyl)phenyl)-2-azaspiro[3.4]octan-2-yl)methanone]"
7,10,"C[C@]1(O)C[C@@H](C(=O)N2CC3(CCC(c4ccc5c(c4)CCC5)C3)C2)C1 (mixture of isomers) [Example 16, (rac)-(6-(2,3-Dihydro-1H-inden-5-yl)-2-azaspiro[3.4]octan-2-yl)((1s,3s)-3-hydroxy-3-methylcyclobutyl)methanone]"
8,29,"Cc1ccc(F)cc1C1CCC2(CC1)CN(C(=O)[C@H]1C[C@@](C)(O)C1)C2 [Example 358, (7-(5-Fluoro-2-methylphenyl)-2-azaspiro[3.5]nonan-2-yl)((1s,3s)-3-hydroxy-3-methylcyclobutyl)methanone]"
9,18,"CC(F)(F)c1ccc(C2CCC3(C2)CN(C(=O)[C@H]2C[C@@](C)(O)C2)C3)cc1 (mixture of isomers) [Example 320, (rac)-(6-(4-(1,1-Difluoroethyl)phenyl)-2-azaspiro[3.4]octan-2-yl)((1s,3s)-3-hydroxy-3-methylcyclobutyl)methanone]"
10,46,"COc1cc(C2CCC3(C2)CN(C(=O)[C@H]2C[C@@](C)(O)C2)C3)ccc1C (mixture of isomers) [Example 17, (rac)-((1s,3s)-3-Hydroxy-3-methylcyclobutyl)(6-(3-methoxy-4-methylphenyl)-2-azaspiro[3.4]octan-2-yl)methanone]"
11,15,"Cc1cc([C@@H]2CCC3(C2)CN(C(=O)[C@H]2C[C@@](C)(O)C2)C3)ccc1Cl [Example 69, ((R)-6-(4-Chloro-3-methylphenyl)-2-azaspiro[3.4]octan-2-yl)((1s,3S)-3-hydroxy-3-methylcyclobutyl)methanone]"
12,3710,"C[C@]1(O)C[C@@H](C(=O)N2CC3(CCC(c4ccn5ccnc5c4)C3)C2)C1 (mixture of isomers) [Example 328, (rac)-((1s,3s)-3-Hydroxy-3-methylcyclobutyl)(6-(imidazo[1,2-a]pyridin-7-yl)-2-azaspiro[3.4]octan-2-yl)methanone]"
13,20,"COc1ccc(C2CCC3(CC2)CN(C(=O)[C@H]2C[C@@](C)(O)C2)C3)cc1C(C)(C)C [Example 118, (7-(3-(tert-Butyl)-4-methoxyphenyl)-2-azaspiro[3.5]nonan-2-yl)((1s,3s)-3-hydroxy-3-methylcyclobutyl)methanone]"
